# Assay results published in patent publication US20100267561A1, “HERBICIDAL PYRIDAZINONE DERIVATIVES” (priority 2007, published 2010).
# How the values were obtained:
# Assay in all cases: Test B pre-/postemergence plant response
# Format in all cases: in vivo
# kochia (Kochia scoparia) = conditions: for Kochia plant response rating: postemergence, 0-100 scale; for Plant response rating, Kochia: Postemergence
# Procedure, shortened: (§1)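 Seeds were sown and sprayed preemergence, while plants at 2 to 18 cm (1- to 4-leaf stage) got postemergence sprays. Compounds were formulated in a non-phytotoxic solvent mixture with surfactant. After 13 to 15 days in a greenhouse, injury was rated visually against untreated controls, 0 (no effect) to 100 (complete control).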
# wild oat (Avena fatua) = system: wild oat (Avena fatua)
# Procedure, shortened: as §1
# [1] = system: Italian ryegrass (Lolium multiflorum)
# Procedure, shortened: as §1
# [2] = system: johnsongrass (Sorghum halepense)
# Procedure, shortened: as §1
# [3] = system: surinam grass (Brachiaria decumbens)
# Procedure, shortened: as §1
# corn (Zea mays) = system: corn (Zea mays)
# Procedure, shortened: as §1
# [4] = system: blackgrass (Alopecurus myosuroides)
# Procedure, shortened: as §1
# [5] = system: giant foxtail (Setaria faberii)
# Procedure, shortened: as §1
# [6] = system: eastern black (E.B.) nightshade (Solanum ptycanthum); conditions: Preemergence; for Nightshade, E. B. plant response rating: scale 0 to 100
# Procedure, shortened: as §1
# [7] = system: morningglory (Ipomoea coccinea)
# Procedure, shortened: as §1
# [8] = system: bermudagrass (Cynodon dactylon)
# Procedure, shortened: as §1
# [9] = system: yellow nutsedge (Cyperus esculentus)
# Procedure, shortened: as §1
# [10] = system: lambsquarters (Chenopodium album)
# Procedure, shortened: as §1
# [11] = system: common ragweed (Ambrosia elation)
# Procedure, shortened: as §1
# [12] = 8 g ai/ha, postemergence, 0-100 scale
# [13] = 16 g ai/ha, postemergence, 0-100 scale
# [14] = Postemergence, 31 g ai/ha, scale 0 to 100
# [15] = Postemergence, 62 g ai/ha, scale 0 to 100, 0 no effect, 100 complete control
# [16] = Preemergence, 31 g ai/ha, scale 0 to 100 (0 no effect, 100 complete control)
# [17] = Preemergence, 62 g ai/ha, 0 to 100 scale, 0 no effect, 100 complete control
# [18] = Preemergence, 8 g ai/ha, scale 0 to 100
# [19] = Preemergence, 16 g ai/ha, scale 0 to 100
# [20] = Postemergence, 16 g ai/ha, scale 0 to 100
compound,measurement,setting,value
CCCc1cc(-c2ccc(Cl)cc2)nn1-c1c(O)cnn(C)c1=O [Compound 76],Kochia plant response rating,kochia (Kochia scoparia); 8 g ai/ha,0
same,Kochia plant response rating,kochia (Kochia scoparia); 16 g ai/ha,0
same,"Plant response rating, Kochia","kochia (Kochia scoparia); 31 g ai/ha, scale 0 to 100",0
same,"Plant response rating, Kochia","kochia (Kochia scoparia); 62 g ai/ha, scale 0 to 100, 0 no effect, 100 complete control",0
same,"Oat, Wild plant response rating",wild oat (Avena fatua); [12],80
same,"Oat, Wild plant response rating",wild oat (Avena fatua); [13],95
same,"Plant response rating, Oat, Wild",wild oat (Avena fatua); [14],100
same,"Plant response rating, Oat, Wild",wild oat (Avena fatua); [15],100
same,"Plant response rating, Oat, Wild",wild oat (Avena fatua); [16],5
same,"Plant response rating, Oat, Wild",wild oat (Avena fatua); [17],80
same,"Oat, Wild plant response rating",wild oat (Avena fatua); [18],0
same,"Oat, Wild plant response rating",wild oat (Avena fatua); [19],0
same,"Ryegrass, Italian plant response rating",[1]; [12],65
same,"Ryegrass, Italian plant response rating",[1]; [13],98
same,"Plant response rating, Ryegrass, Italian",[1]; [14],100
same,"Plant response rating, Ryegrass, Italian",[1]; [15],100
same,"Plant response rating, Ryegrass, Italian",[1]; [16],95
same,"Plant response rating, Ryegrass, Italian",[1]; [17],95
same,"Ryegrass, Italian plant response rating",[1]; [18],75
same,"Ryegrass, Italian plant response rating",[1]; [19],75
same,Johnsongrass plant response rating,[2]; [12],65
same,Johnsongrass plant response rating,[2]; [13],75
same,"Plant response rating, Johnsongrass",[2]; [14],95
same,"Plant response rating, Johnsongrass",[2]; [15],98
same,"Plant response rating, Johnsongrass",[2]; [16],70
same,"Plant response rating, Johnsongrass",[2]; [17],85
same,Johnsongrass plant response rating,[2]; [18],0
same,Johnsongrass plant response rating,[2]; [19],0
same,Surinam Grass plant response rating,[3]; [12],65
same,Surinam Grass plant response rating,[3]; [13],90
same,"Plant response rating, Surinam Grass",[3]; [14],100
same,"Plant response rating, Surinam Grass",[3]; [15],100
same,"Plant response rating, Surinam Grass",[3]; [16],95
same,"Plant response rating, Surinam Grass",[3]; [17],100
same,Surinam Grass plant response rating,[3]; [18],65
same,Surinam Grass plant response rating,[3]; [19],90
same,Corn plant response rating,corn (Zea mays); [12],75
same,"Plant response rating, Corn",corn (Zea mays); [20],85
same,"Plant response rating, Corn",corn (Zea mays); [14],100
same,"Plant response rating, Corn",corn (Zea mays); [15],100
same,"Plant response rating, Corn",corn (Zea mays); [16],75
same,"Plant response rating, Corn",corn (Zea mays); [17],85
same,Corn plant response rating,corn (Zea mays); [18],0
same,Corn plant response rating,corn (Zea mays); [19],55
same,Blackgrass plant response rating,[4]; [12],70
same,"Plant response rating, Blackgrass",[4]; [20],85
same,"Plant response rating, Blackgrass",[4]; [14],100
same,"Plant response rating, Blackgrass",[4]; [15],100
same,"Plant response rating, Blackgrass",[4]; [16],80
same,"Plant response rating, Blackgrass",[4]; [17],90
same,Blackgrass plant response rating,[4]; [18],40
same,Blackgrass plant response rating,[4]; [19],40
same,"Foxtail, Giant plant response rating",[5]; [12],75
same,"Plant response rating, Foxtail, Giant",[5]; [20],85
same,"Plant response rating, Foxtail, Giant",[5]; [14],95
same,"Plant response rating, Foxtail, Giant",[5]; [15],98
same,"Plant response rating, Foxtail, Giant",[5]; [16],90
same,"Plant response rating, Foxtail, Giant",[5]; [17],100
same,"Foxtail, Giant plant response rating",[5]; [18],0
same,"Foxtail, Giant plant response rating",[5]; [19],70
same,"Plant response rating, Nightshade, E. B.","[6]; 31 g ai/ha, scale 0 to 100 (0 no effect, 100 complete control)",0
same,"Plant response rating, Nightshade, E. B.","[6]; 62 g ai/ha, 0 to 100 scale, 0 no effect, 100 complete control",0
same,"Nightshade, E. B. plant response rating",[6]; 8 g ai/ha,0
same,"Nightshade, E. B. plant response rating",[6]; 16 g ai/ha,0
same,Morningglory plant response rating,[7]; [12],0
same,Morningglory plant response rating,[7]; [13],0
same,"Plant response rating, Morningglory",[7]; [14],0
same,"Plant response rating, Morningglory",[7]; [15],0
same,"Plant response rating, Morningglory",[7]; [16],0
same,"Plant response rating, Morningglory",[7]; [17],0
same,Morningglory plant response rating,[7]; [18],0
same,Morningglory plant response rating,[7]; [19],0
same,Bermudagrass plant response rating,[8]; [12],70
same,"Plant response rating, Bermudagrass",[8]; [20],80
same,"Plant response rating, Bermudagrass",[8]; [14],85
same,"Plant response rating, Bermudagrass",[8]; [15],90
same,Bermudagrass plant response rating,"[8]; Preemergence, 8 g ai/ha, scale 0 to 100 (0 no effect, 100 complete control)",0
same,Bermudagrass plant response rating,"[8]; Preemergence, 16 g ai/ha, scale 0 to 100 (0 no effect, 100 complete control)",20
same,"Plant response rating, Bermudagrass",[8]; [16],100
same,"Plant response rating, Bermudagrass",[8]; [17],100
same,"Nutsedge, Yellow plant response rating",[9]; [12],0
same,"Nutsedge, Yellow plant response rating",[9]; [13],0
same,"Plant response rating, Nutsedge, Yellow",[9]; [14],0
same,"Plant response rating, Nutsedge, Yellow",[9]; [15],0
same,"Plant response rating, Nutsedge, Yellow",[9]; [16],100
same,"Plant response rating, Nutsedge, Yellow",[9]; [17],100
same,"Nutsedge, Yellow plant response rating",[9]; [18],100
same,"Nutsedge, Yellow plant response rating",[9]; [19],100
same,Lambsquarters plant response rating,[10]; [12],0
same,Lambsquarters plant response rating,[10]; [13],0
same,"Plant response rating, Lambsquarters",[10]; [14],0
same,"Plant response rating, Lambsquarters",[10]; [15],0
same,"Plant response rating, Lambsquarters",[10]; [16],0
same,"Plant response rating, Lambsquarters",[10]; [17],0
same,Lambsquarters plant response rating,[10]; [18],0
same,Lambsquarters plant response rating,[10]; [19],0
same,Ragweed plant response rating,[11]; [12],0
same,Ragweed plant response rating,[11]; [13],0
same,"Plant response rating, Ragweed",[11]; [14],0
same,"Plant response rating, Ragweed",[11]; [15],0
same,"Plant response rating, Ragweed",[11]; [16],0
same,"Plant response rating, Ragweed",[11]; [17],0
same,Ragweed plant response rating,[11]; [18],0
same,Ragweed plant response rating,[11]; [19],0
